According to patent publication US4636515A, “Non-classical topical treatment for glaucoma” (University of Iowa Research Foundation, priority 1984, dated 1987):

Columns and labels:
[1] = test system: eye of normal adult white rabbits; assay: Salted rabbit test: intraocular pressure after topical instillation; format: in vivo; conditions: for IOP change, Av. Chg.: 1% w/v suspension, 3 drops topical, vs placebo fellow eye, six rabbits
Method: In particular, an initial drop from the test formulation followed by two drops at one minute intervals are applied to one eye of each of six adult white rabbits that had been maintained on a diet containing 0.5% sodium. The treated eye was selected randomly, whereas, the fellow eye received placebo; the observer was masked. Results identified a small but significant reduction of intraocular pressure in the treated eye at 30, 60 and 120 minutes.
One drop, followed by two drops each at one minute intervals, was applied to one eye of normal adult white rabbits. Six rabbits were used in the experiment. The treated eye was selected randomly, whereas, the fellow eye received placebo. The observer was masked. The intraocular pressure (IOP) was measured with a Digilab pneumotonometer, initially and every ten minutes for 120 minutes following instillation of the anti-glaucoma agent. A drop of local anesthetic was applied just prior to making the measurement.

carbonic anhydrase = assay: in vitro carbonic anhydrase activity, simplified method of Maren; format: biochemical
Method: The procedure required the use of a specialized glass reaction vessel to which was added 0.4 ml phenol red indicator (0.00125%), 0.25 to 0.30 ml heparinized blood containing 2 enzyme units of carbonic anhydrase, 0.1 ml drug solution (0.01 to 100 mg/L) and 0.1 ml of 0.255 M carbonate buffer. […] Each reagent was added at a specified time and in a specified order. […] Reaction time was the time for the uncatalyzed reaction time. […] By varying the time before adding the carbonate buffer and then determining the reaction time, the equilibration time can be accurately determined. The reaction time was averaged over three determinations. A range of drug concentrations were reacted and the concentration of drug causing 50% inhibition of enzyme (I50) read from a plot of reaction time against drug concentration. (If two enzyme units are added, then the concentration of drug yielding a reaction time corresponding to the activity of one unit is taken as the I50).

Row | I50 (concentration of drug causing 50% inhibition of enzyme), averaged (carbonic anhydrase; heparinized blood containing 2 enzyme units of carbonic anhydrase, 0° C.) [mg/L] | time required for carbonic anhydrase to reach an equilibrium with drug (carbonic anhydrase; time between addition of drug solution and carbonate buffer) [s] | Compound | IOP change, Av. Chg. ([1]; 10 minutes) [mm Hg] | IOP change, Av. Chg. ([1]; 20 minutes) [mm Hg] | IOP change, Av. Chg. ([1]; 30 minutes) [mm Hg] | IOP change, Av. Chg. ([1]; 40 minutes) [mm Hg] | IOP change, Av. Chg. ([1]; 50 minutes) [mm Hg] | IOP change, Av. Chg. ([1]; 60 minutes) [mm Hg] | IOP change, Av. Chg. ([1]; 70 minutes) [mm Hg] | IOP change, Av. Chg. ([1]; 80 minutes) [mm Hg] | IOP change, Av. Chg. ([1]; 90 minutes) [mm Hg] | IOP change, Av. Chg. ([1]; 100 minutes) [mm Hg] | IOP change, Av. Chg. ([1]; 110 minutes) [mm Hg] | IOP change, Av. Chg. ([1]; 120 minutes) [mm Hg] | effect on intraocular pressure (IOP) in vivo (in words) ([1]; after topical administration) | lowering of IOP, statistical significance ([1]; all time intervals, 10 to 120 minutes)
1 | 0.520 | – | CNS(=O)(=O)c1nnc(NC(C)=O)s1 [methyl acetazolamide, N-methyl-2-acetylamino-1,3,4-thiadiazole-5-sulfonamide] | -2 | -1.67 | -2.33 | -0.40 | -1.83 | -1.67 | -1.67 | -2.14 | -1.50 | -2.67 | -0.67 | -1.5 | able to reduce intraocular pressure | statistically significant
2 | – | 10 | Nc1ccc(S(N)(=O)=O)cc1 [sulfanilamide, reference compound] | – | – | – | – | – | – | – | – | – | – | – | – | – | –
